Key:
HDAC2 = HDAC2 (Homo sapiens (Human), UniProt Q92769); test: biochemical HDAC assay (Reaction Biology Corp.), HDAC2; details: fluorogenic peptide RHKK(Ac)AMC; 10-dose, 3-fold dilution from 10 μM
Description: (§1) The inhibitory activities of compounds of present invention were determined using biochemical HDAC assays (Reaction Biology Corp. biochemical assay services). Compound with indicated doses was tested in the biochemical assays of HDAC 1, HDAC2, HDAC3, HDAC4, HDAC5, HDAC6, HDAC7, HDAC 8, HDAC9, HDAC10, and HDAC11 enzyme.
(§2) Compounds were tested in singlicate 10-dose IC50 mode with 3-fold serial dilution starting at 10 μM against 11 HDACs. HDAC reference compounds Trichostatin A (TSA) and TMP269 were tested in a 10-dose IC50 with 3-fold serial dilution starting at 10 μM.
(§3) Substrate for HDAC1,2,3,6,10: Fluorogenic peptide from p53 residues 379-382 (RHKK(Ac)AMC). Substrate for HDAC4,5,7,9, and 11: Fluorogenic HDAC Class2a Substrate (Trifluoroacetyl Lysine). Substrate for HDAC 8: Fluorogenic peptide from p53 residues 379-382 (RHK(Ac)K(Ac)AMC).
(§4) General Reaction Procedure: (Standard IC50 determination) • a. 2× enzyme was added to wells of reaction plate except to No Enzyme (No En) control wells. Add buffer in No En wells. • b. Compounds to be tested in 100% DMSO were added to the enzyme mixture by Acoustic technology (Echo550; nanoliter range). The mixture was spinned down and preincubated. • c. 2× Substrate Mixture (Fluorogenic HDAC Substrate and co-factor (500 μM of Nicotinamide adenine dinucleotide (NAD<+>) in all Sirt assay) were added to all reaction wells to initiate the reaction. The plates were spinned and shaken. • d. The plates were incubated for 1-2 hr. at 30° C. with seal. • e. Developer with Trichostatin A (or TMP269 or NAD<+>) was added to stop the reaction and to generate fluorescent color. • f. Fluorescence was read (excitatory, 360; emission, 460) using the EnVision Multilabel Plate Reader (Perkin Elmer) • g. Endpoint reading was taken for analysis after the development reaches plateau.
(§5) Data Analysis: The percentages of enzyme activity (relative to DMSO controls) and IC50 values were calculated using the GraphPad Prism 4 program based on a sigmoidal dose-response equation. The blank (DMSO) value was entered as 1.00E-12 of concentration for curve fitting.

HDAC 1 = HDAC 1 (Homo sapiens (Human), UniProt Q13547); test: biochemical HDAC assay (Reaction Biology Corp.), HDAC1; details: fluorogenic peptide RHKK(Ac)AMC; 10-dose, 3-fold dilution from 10 μM
Sequence of HDAC 1 (Q13547 whole entry, the tested form may be a part): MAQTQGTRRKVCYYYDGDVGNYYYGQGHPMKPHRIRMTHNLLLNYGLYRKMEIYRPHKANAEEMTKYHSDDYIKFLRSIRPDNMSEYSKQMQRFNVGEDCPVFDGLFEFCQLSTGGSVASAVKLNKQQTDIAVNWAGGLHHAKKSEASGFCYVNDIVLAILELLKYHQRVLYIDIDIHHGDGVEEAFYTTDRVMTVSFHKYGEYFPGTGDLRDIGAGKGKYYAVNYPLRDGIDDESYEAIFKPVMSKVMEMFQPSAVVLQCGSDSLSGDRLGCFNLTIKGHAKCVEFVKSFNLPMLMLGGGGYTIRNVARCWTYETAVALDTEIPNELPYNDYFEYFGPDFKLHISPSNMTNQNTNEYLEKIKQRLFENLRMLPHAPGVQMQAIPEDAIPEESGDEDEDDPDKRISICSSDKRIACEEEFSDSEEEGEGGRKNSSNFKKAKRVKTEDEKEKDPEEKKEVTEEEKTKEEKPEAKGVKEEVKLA
Description: The inhibitory activities of compounds of present invention were determined using biochemical HDAC assays (Reaction Biology Corp. biochemical assay services). Compound with indicated doses was tested in the biochemical assays of HDAC 1, HDAC2, HDAC3, HDAC4, HDAC5, HDAC6, HDAC7, HDAC 8, HDAC9, HDAC10, and HDAC11 enzyme. Compounds were tested in singlicate 10-dose IC50 mode with 3-fold serial dilution starting at 10 μM against 11 HDACs. HDAC reference compounds Trichostatin A (TSA) and TMP269 were tested in a 10-dose IC50 with 3-fold serial dilution starting at 10 μM. Substrate for HDAC1,2,3,6,10: Fluorogenic peptide from p53 residues 379-382 (RHKK(Ac)AMC). Substrate for HDAC4,5,7,9, and 11: Fluorogenic HDAC Class2a Substrate (Trifluoroacetyl Lysine). Substrate for HDAC 8: Fluorogenic peptide from p53 residues 379-382 (RHK(Ac)K(Ac)AMC). General Reaction Procedure: (Standard IC50 determination) • a. 2× enzyme was added to wells of reaction plate except to No Enzyme (No En) control wells. Add buffer in No En wells. • b. Compounds to be tested in 100% DMSO were added to the enzyme mixture by Acoustic technology (Echo550; nanoliter range). The mixture was spinned down and preincubated. • c. 2× Substrate Mixture (Fluorogenic HDAC Substrate and co-factor (500 μM of Nicotinamide adenine dinucleotide (NAD<+>) in all Sirt assay) were added to all reaction wells to initiate the reaction. The plates were spinned and shaken. • d. The plates were incubated for 1-2 hr. at 30° C. with seal. • e. Developer with Trichostatin A (or TMP269 or NAD<+>) was added to stop the reaction and to generate fluorescent color. • f. Fluorescence was read (excitatory, 360; emission, 460) using the EnVision Multilabel Plate Reader (Perkin Elmer) • g. Endpoint reading was taken for analysis after the development reaches plateau. Data Analysis: The percentages of enzyme activity (relative to DMSO controls) and IC50 values were calculated using the GraphPad Prism 4 program based on a sigmoidal dose-response equation. The blank (DMSO) value was entered as 1.00E-12 of concentration for curve fitting.

HDAC3 = HDAC3 (Homo sapiens (Human), UniProt O15379); test: biochemical HDAC assay (Reaction Biology Corp.), HDAC3; details: fluorogenic peptide RHKK(Ac)AMC; 10-dose, 3-fold dilution from 10 μM
Sequence of HDAC3 (O15379 whole entry): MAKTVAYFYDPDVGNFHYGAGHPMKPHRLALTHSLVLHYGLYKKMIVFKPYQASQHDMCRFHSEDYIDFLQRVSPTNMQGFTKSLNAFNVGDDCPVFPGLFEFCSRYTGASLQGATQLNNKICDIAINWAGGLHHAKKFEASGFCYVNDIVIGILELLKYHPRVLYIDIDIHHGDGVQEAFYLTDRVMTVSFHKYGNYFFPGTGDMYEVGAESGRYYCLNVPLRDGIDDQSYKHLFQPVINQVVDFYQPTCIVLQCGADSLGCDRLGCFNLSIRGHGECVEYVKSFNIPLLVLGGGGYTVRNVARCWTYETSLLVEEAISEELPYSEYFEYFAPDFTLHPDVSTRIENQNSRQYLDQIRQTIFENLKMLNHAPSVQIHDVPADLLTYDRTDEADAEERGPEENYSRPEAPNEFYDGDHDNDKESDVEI
Sequence of HDAC3 (Q9Y618 395-489 partner): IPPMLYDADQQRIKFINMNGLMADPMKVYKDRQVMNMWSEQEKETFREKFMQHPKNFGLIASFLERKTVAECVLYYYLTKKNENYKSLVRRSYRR
Description: as §1, §2, §3, §4, §5

HDAC8 = HDAC8 (Homo sapiens (Human), UniProt Q9BY41); test: biochemical HDAC assay (Reaction Biology Corp.), HDAC8; details: fluorogenic peptide RHK(Ac)K(Ac)AMC; 10-dose, 3-fold dilution from 10 μM
Sequence of HDAC8 (Q9BY41 whole entry): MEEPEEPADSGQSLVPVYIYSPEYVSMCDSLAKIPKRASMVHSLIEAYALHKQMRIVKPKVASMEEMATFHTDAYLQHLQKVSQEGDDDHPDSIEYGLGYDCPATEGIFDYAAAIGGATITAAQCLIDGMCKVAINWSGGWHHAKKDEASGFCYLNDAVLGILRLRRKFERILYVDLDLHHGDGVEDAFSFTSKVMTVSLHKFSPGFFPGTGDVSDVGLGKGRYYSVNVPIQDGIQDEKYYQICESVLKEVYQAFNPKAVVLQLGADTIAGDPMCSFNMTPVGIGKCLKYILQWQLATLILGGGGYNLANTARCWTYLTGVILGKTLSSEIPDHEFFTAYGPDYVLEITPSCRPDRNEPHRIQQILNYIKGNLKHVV
Description: as §1, §2, §3, §4, §5

HDAC10 = HDAC10 (Homo sapiens (Human), UniProt Q969S8); test: biochemical HDAC assay (Reaction Biology Corp.), HDAC10; details: fluorogenic peptide RHKK(Ac)AMC; 10-dose, 3-fold dilution from 10 μM
Sequence of HDAC10 (Q969S8 whole entry): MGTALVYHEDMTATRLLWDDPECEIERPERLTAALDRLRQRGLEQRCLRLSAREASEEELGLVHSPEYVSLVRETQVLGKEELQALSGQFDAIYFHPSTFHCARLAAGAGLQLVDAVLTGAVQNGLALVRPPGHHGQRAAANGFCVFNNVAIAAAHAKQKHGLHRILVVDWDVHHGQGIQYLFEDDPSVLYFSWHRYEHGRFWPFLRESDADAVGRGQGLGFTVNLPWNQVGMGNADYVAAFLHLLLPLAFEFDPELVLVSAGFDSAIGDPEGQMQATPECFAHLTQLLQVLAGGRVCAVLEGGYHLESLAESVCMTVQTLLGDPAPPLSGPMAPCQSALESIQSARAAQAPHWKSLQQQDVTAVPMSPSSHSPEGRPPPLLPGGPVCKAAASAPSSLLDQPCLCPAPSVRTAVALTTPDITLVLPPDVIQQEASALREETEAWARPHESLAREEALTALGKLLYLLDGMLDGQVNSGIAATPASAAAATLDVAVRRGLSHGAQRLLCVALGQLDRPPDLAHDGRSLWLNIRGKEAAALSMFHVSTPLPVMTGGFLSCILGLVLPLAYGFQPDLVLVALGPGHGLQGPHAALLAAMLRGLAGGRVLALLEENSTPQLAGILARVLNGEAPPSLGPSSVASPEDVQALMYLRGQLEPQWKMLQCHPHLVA
Description: as §1, §2, §3, §4, §5

HDAC6 = HDAC6 (Homo sapiens (Human), UniProt Q9UBN7); test: biochemical HDAC assay (Reaction Biology Corp.), HDAC6; details: fluorogenic peptide RHKK(Ac)AMC; 10-dose, 3-fold dilution from 10 μM
Sequence of HDAC6 (Q9UBN7 whole entry): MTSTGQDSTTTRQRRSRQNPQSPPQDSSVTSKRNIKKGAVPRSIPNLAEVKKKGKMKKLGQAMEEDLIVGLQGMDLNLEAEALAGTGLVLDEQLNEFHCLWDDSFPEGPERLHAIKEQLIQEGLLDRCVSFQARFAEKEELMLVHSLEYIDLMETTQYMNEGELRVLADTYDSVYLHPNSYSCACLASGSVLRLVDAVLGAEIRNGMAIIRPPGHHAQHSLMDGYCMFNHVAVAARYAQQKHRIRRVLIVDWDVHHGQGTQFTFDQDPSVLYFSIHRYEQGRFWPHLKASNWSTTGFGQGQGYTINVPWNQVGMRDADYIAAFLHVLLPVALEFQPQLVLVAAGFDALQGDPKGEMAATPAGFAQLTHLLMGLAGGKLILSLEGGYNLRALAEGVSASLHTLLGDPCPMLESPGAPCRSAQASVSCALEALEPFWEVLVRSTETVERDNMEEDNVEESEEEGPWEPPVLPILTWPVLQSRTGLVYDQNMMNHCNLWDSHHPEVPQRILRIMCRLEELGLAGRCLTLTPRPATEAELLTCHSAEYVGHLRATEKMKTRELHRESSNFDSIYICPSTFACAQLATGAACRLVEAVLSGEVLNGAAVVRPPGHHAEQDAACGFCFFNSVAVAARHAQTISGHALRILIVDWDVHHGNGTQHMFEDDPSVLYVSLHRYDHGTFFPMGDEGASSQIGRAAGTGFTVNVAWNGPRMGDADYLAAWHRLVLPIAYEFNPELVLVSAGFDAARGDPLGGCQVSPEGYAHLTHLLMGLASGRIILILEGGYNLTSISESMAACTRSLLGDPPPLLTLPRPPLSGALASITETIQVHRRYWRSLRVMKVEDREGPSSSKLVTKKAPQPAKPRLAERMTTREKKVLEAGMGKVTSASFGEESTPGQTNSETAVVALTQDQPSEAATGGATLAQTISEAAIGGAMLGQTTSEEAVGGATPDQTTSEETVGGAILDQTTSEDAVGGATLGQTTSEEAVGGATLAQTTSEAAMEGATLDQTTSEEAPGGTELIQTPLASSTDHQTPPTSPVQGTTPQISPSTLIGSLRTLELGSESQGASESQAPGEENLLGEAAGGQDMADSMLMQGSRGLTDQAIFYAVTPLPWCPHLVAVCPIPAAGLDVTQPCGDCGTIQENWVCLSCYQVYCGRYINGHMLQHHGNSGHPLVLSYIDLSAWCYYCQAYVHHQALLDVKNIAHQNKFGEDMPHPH
Description: as §1, §2, §3, §4, §5

Sequence of HDAC2 (Q92769 whole entry): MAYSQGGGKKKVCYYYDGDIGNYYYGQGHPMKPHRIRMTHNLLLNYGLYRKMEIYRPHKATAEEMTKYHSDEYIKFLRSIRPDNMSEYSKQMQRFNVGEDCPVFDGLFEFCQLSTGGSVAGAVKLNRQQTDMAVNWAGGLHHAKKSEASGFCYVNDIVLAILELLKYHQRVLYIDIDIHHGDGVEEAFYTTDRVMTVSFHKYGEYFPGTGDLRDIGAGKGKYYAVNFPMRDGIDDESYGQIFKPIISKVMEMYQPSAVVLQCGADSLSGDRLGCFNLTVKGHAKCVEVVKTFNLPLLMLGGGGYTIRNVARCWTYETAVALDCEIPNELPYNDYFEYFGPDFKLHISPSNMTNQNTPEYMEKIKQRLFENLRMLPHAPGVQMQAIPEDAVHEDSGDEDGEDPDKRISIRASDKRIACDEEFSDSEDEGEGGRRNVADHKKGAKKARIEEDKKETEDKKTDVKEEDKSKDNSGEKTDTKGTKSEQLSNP

Molecule | IC50 (HDAC2) [nM] | IC50 (HDAC 1) [nM] | IC50 (HDAC3) [nM] | IC50 (HDAC8) [nM] | IC50 (HDAC10) [nM] | IC50 (HDAC6) [nM]
CN1CCN(c2ccc(C(=O)Nc3nc(-c4ccccc4)ccc3N)cn2)CC1 [Example 1, N-(3-amino-6-phenylpyridin-2-yl)-6-(4-methylpiperazin-1-yl)nicotinamide] | < 200 |  |  |  |  | 
Nc1ccc(-c2ccccc2)nc1NC(=O)c1cccnc1 [Example 2, N-(3-amino-6-phenylpyridin-2-yl)nicotinamide] | < 200 |  |  |  |  | 
Nc1ccc(-c2ccc(F)cc2)nc1NC(=O)c1cccnc1 [Example 3, N-(3-amino-6-(4-fluorophenyl)pyridin-2-yl)nicotinamide] | < 200 |  |  |  |  | 
Nc1ccc(-c2ccccc2)nc1NC(=O)c1ccc(N2CCOCC2)nc1 [Example 4, N-(3-amino-6-phenylpyridin-2-yl)-6-morpholinonicotinamide] | < 200 |  |  |  |  | 
Nc1ccc(-c2ccc(F)cc2)nc1NC(=O)c1ccc(N2CCOCC2)nc1 [Example 5, N-(3-amino-6-(4-fluorophenyl)pyridin-2-yl)-6-morpholinonicotinamide] | < 200 | < 200 | ≥ 50000 | ≥ 50000 | 1000 to 50000 | 
CN1CCN(c2ccc(C(=O)Nc3nc(-c4ccc(F)cc4)ccc3N)cn2)CC1 [Example 6, N-(3-amino-6-(4-fluorophenyl)pyridin-2-yl)-6-(4-methylpiperazin-1-yl)nicotinamide] | < 200 | < 200 | ≥ 50000 | ≥ 50000 | 1000 to 50000 | ≥ 50000
COc1ccc(-c2ccc(N)c(NC(=O)c3ccc(N4CCN(C)CC4)nc3)n2)cc1 [Example 7, N-(3-amino-6-(4-methoxyphenyl)pyridin-2-yl)-6-(4-methylpiperazin-1-yl)nicotinamide] | 200 to 1000 |  |  |  |  | 
CN1CCN(c2ccc(C(=O)Nc3nc(-c4ccncc4)ccc3N)cn2)CC1 [Example 8, N-(5-amino-[2,4′-bipyridin]-6-yl)-6-(4-methylpiperazin-1-yl)nicotinamide] | 200 to 1000 |  |  |  |  | 
CN1CCN(c2ccc(C(=O)Nc3nc(-c4ccc(F)c(F)c4)ccc3N)cn2)CC1 [Example 9, N-(3-amino-6-(3,4-difluorophenyl)pyridin-2-yl)-6-(4-methylpiperazin-1-yl)nicotinamide] | 200 to 1000 |  |  |  |  | 
CN1CCN(c2ncc(C(=O)Nc3nc(-c4ccccc4)ccc3N)cn2)CC1 [Example 10, N-(3-amino-6-phenylpyridin-2-yl)-2-(4-methylpiperazin-1-yl)pyrimidine-5-carboxamide] | < 200 |  |  |  |  | 
Nc1ccc(-c2ccc(F)cc2)nc1NC(=O)c1cnc(N2CCOCC2)nc1 [Example 14, N-(3-amino-6-(4-fluorophenyl)pyridin-2-yl)-2-morpholinopyrimidine-5-carboxamide] | < 200 |  |  |  |  | 
CN1CCN(c2ncc(C(=O)Nc3nc(-c4ccc(F)cc4)ccc3N)cn2)CC1 [Example 15, N-(3-amino-6-(4-fluorophenyl)pyridin-2-yl)-2-(4-methylpiperazin-1-yl)pyrimidine-5-carboxamide] | < 200 |  |  |  |  | 
Nc1ccc(-c2ccccc2)nc1NC(=O)c1cnc(NC2CC2)nc1 [Example 16, N-(3-amino-6-phenylpyridin-2-yl)-2-(cyclopropylamino)pyrimidine-5-carboxamide] | < 200 |  |  |  |  | 
Nc1ccc(-c2ccc(F)cc2)nc1NC(=O)c1cnc(NC2CC2)nc1 [Example 17, N-(3-amino-6-(4-fluorophenyl)pyridin-2-yl)-2-(cyclopropylamino)pyrimidine-5-carboxamide] | < 200 | 1000 to 50000 | ≥ 50000 |  | ≥ 50000 | 
Nc1ccc(-c2ccc(F)cc2)nc1NC(=O)c1ccc(-c2cccnc2)nc1 [Example 21, N-(3-amino-6-(4-fluorophenyl)pyridin-2-yl)-[2,3′-bipyridine]-5-carboxamide] | 200 to 1000 |  |  |  |  | 
N#Cc1cccc(-c2ccc(C(=O)Nc3nc(-c4ccc(F)cc4)ccc3N)cn2)c1 [Example 22, N-(3-amino-6-(4-fluorophenyl)pyridin-2-yl)-6-(3-cyanophenyl)nicotinamide] | 200 to 1000 |  |  |  |  | 
Nc1ccc(-c2ccc(F)cc2)nc1NC(=O)c1ccc(N2CCNCC2)nc1 [Example 25, N-(3-amino-6-(4-fluorophenyl)pyridin-2-yl)-6-(piperazin-1-yl)nicotinamide] | < 200 | 200 to 1000 | ≥ 50000 | ≥ 50000 | 1000 to 50000 | 1000 to 50000
Nc1ccc(-c2ccc(F)cc2)nc1NC(=O)c1ccc(N2CCC(N)CC2)nc1 [Example 27, N-(3-amino-6-(4-fluorophenyl)pyridin-2-yl)-6-(4-aminopiperidin-1-yl)nicotinamide] | < 200 | < 200 | ≥ 50000 |  | 1000 to 50000 | 1000 to 50000
CN1CCN(c2ccc(C(=O)Nc3nc(-c4cccs4)ccc3N)cn2)CC1 [Example 29, N-(3-amino-6-(thiophen-2-yl)pyridin-2-yl)-6-(4-methylpiperazin-1-yl)nicotinamide] | < 200 | < 200 | 1000 to 50000 |  | 1000 to 50000 | 1000 to 50000
CN1CCN(CCNc2ccc(C(=O)Nc3nc(-c4ccc(F)cc4)ccc3N)cn2)CC1 [Example 30, N-(3-amino-6-(4-fluorophenyl)pyridin-2-yl)-6-((2-(4-methylpiperazin-1-yl)ethyl)amino)nicotinamide] | < 200 |  |  |  |  | 
N-(3-amino-6-(4-fluorophenyl)pyridin-2-yl)-6-(4-methylpiperazin-1-yl)nicotinamide [Example 13] | < 200 |  |  |  |  | 
